# Source: the OligoGym collection
# “And” between values parts separate entries of the source, which are not always exact repeats. Identical values can stand only once. After the bases stand the sugars from the 5' end (letter, count) and the backbone: PS all phosphorothioate, else s phosphorothioate and o phosphodiester by linkage. Methylation of C is not given here. e = 2'-O-(2-methoxyethyl) (MOE); k = constrained ethyl (cEt); d = 2'-deoxy (DNA)
# Target: IRF4
# Conditions: ASO
Sequence,"target mRNA inhibition (SK-MEL-28, 4 µM)","target mRNA inhibition (MM.1R, 1 µM)",further results
"GGTGAGCACCGCGCCG (sugars k3 d10 k3, PS)",-8%,,
"GCCAAGTAATTTTAAG (sugars k3 d10 k3, PS)",35%,,
"ACTTAACCCACATCAC (sugars k3 d10 k3, PS)",-22%,,
"TGATGTGATAGCTGAG (sugars kkdddddddddkekek, PS)",,-2%,
"GTCACCTGGCAACCAT (sugars k3 d10 k3, PS)",41%,,
"TCTGAGACTACACCTA (sugars k3 d10 k3, PS)",27%,,
"ATTCAGGAGAGCCCCT (sugars k3 d10 k3, PS)",,-15%,
"AGTCAATCACTGGAGA (sugars k3 d10 k3, PS)",60%,16% and 22%,"target mRNA inhibition (MM.1R, 0.0625 µM): 1% and -8%; target mRNA inhibition (MM.1R, 0.074 µM): 0%; target mRNA inhibition (MM.1R, 0.222 µM): -15%; target mRNA inhibition (MM.1R, 0.25 µM): 4% and 5%; target mRNA inhibition (MM.1R, 0.666 µM): -7%; target mRNA inhibition (MM.1R, 2 µM): 9%; target mRNA inhibition (MM.1R, 4 µM): 40% and 45%"
"AAGAGGTGCGAGTACC (sugars k3 d10 k3, PS)",34%,,
"CTCTATAGTGTTCCAG (sugars kkkddddddddkekek, PS)",,15%,
"CTGTGTAATGTAGGGA (sugars k3 d10 k3, PS)",42%,,
"ACAGAAGATCTCTACT (sugars k3 d10 k3, PS)",32%,,
"CTGCTTGAGGTTTTCC (sugars k3 d9 k3 e1, PS)",,65%,"target mRNA inhibition (MM.1R, 0.074 µM): 18%; target mRNA inhibition (MM.1R, 0.222 µM): 36%; target mRNA inhibition (MM.1R, 0.666 µM): 60%; target mRNA inhibition (MM.1R, 2 µM): 82%"
"AGGCACCGCACTCCGG (sugars k3 d10 k3, PS)",,-13%,
"CCCCGGAAGAAGGCAC (sugars k3 d10 k3, PS)",36%,,
"AAGTTCTAGTCGCGCA (sugars k3 d10 k3, PS)",,11%,
"GCCGCTGTCGATCTGG (sugars k3 d10 k3, PS)",24%,,
"ATGTGTATTACTCTTA (sugars kkdddddddddekeke, PS)",,60% and 61%,
"TAGTATGAGAAACGGC (sugars kkdddddddddkekek, PS)",,27%,
"CTTGGCAGGGAGCGGC (sugars k3 d10 k3, PS)",,25%,
"AGGACACTCACAGGCG (sugars k3 d10 k3, PS)",,8%,
"GTTGGCTGGTCTTTGT (sugars kdddddddddkekeke, PS)",,18%,
"ACTGTTACCGATGCTT (sugars k3 d10 k3, PS)",,43% and 25%,"target mRNA inhibition (MM.1R, 0.0625 µM): -11%; target mRNA inhibition (MM.1R, 0.25 µM): 4%; target mRNA inhibition (MM.1R, 4 µM): 65%"
"AACCAGTACAGTCCAC (sugars k3 d10 k3, PS)",35%,,
"AATGTAAGTGATAGGT (sugars k3 d10 k3, PS)",80%,,

Sequence,"target mRNA inhibition (SK-MEL-28, 4 µM)","target mRNA inhibition (MM.1R, 1 µM)",further results
"ACCTAACTAAATGTCA (sugars k3 d10 k3, PS)",,-24%,
"ATGCCATGGACAAGTT (sugars k3 d10 k3, PS)",,18%,
"GAAGGGAACAGATAGT (sugars k3 d10 k3, PS)",17%,,
"CATGTAGTTGTGAACC (sugars k3 d10 k3, PS)",27%,,
"AAGAACTGCTGTGTGT (sugars k3 d10 k3, PS)",12%,,
"CTACTATTGTGGAAAA (sugars k3 d10 k3, PS)",3%,,
"GTGAAAACACTCATGG (sugars k3 d10 k3, PS)",60%,,
"AAAGGTTCCTGTCACC (sugars k3 d10 k3, PS)",38%,,
"GAGAGACGAAAACAGC (sugars k3 d10 k3, PS)",,5%,
"GAGGAAGTCCCCTTCC (sugars k3 d10 k3, PS)",,4%,
"GGAGGAGGGTTGGCCT (sugars k3 d10 k3, PS)",1%,,
"GCCTTAATGGTGATTT (sugars k3 d10 k3, PS)",26%,,
"GCAGTGATGTCAGGTT (sugars kkdddddddddkdkdk, PS)",,53%,"target mRNA inhibition (MM.1R, 0.074 µM): 15%; target mRNA inhibition (MM.1R, 0.222 µM): 32%; target mRNA inhibition (MM.1R, 0.666 µM): 58%; target mRNA inhibition (MM.1R, 2 µM): 79%"
"GCATTTTATCATCCGA (sugars e1 k2 d9 k2 e2, PS)",,61%,"target mRNA inhibition (MM.1R, 0.074 µM): 18%; target mRNA inhibition (MM.1R, 0.222 µM): 34%; target mRNA inhibition (MM.1R, 0.666 µM): 57%; target mRNA inhibition (MM.1R, 2 µM): 83%"
"TGCCACAACTCTCGCC (sugars k3 d10 k3, PS)",31%,,
"CGAGGTGATTCTCGGG (sugars k3 d10 k3, PS)",,15%,
"TCGGAACTTTCCTTTA (sugars k3 d10 k3, PS)",33%,,
"AATGGCGGATAGATCT (sugars k3 d10 k3, PS)",,10% and 25%,
"CAGAATGAAGTTAAGG (sugars k3 d10 k3, PS)",50%,,
"AGTCACCTGGAATCTT (sugars k3 d10 k3, PS)",47%,,
"TAGTCGACAGCTAAAG (sugars k3 d10 k3, PS)",46%,,
"TTAAAGGGTAAGCACT (sugars k3 d10 k3, PS)",,-18%,
"TGTGATAGCTGAGCTG (sugars k3 d10 k3, PS)",,47%,
"CCTCAGGAAATGTCCA (sugars k4 d8 k4, PS)",10%,,
"GACACTTTTAGAGAGG (sugars kdddddddddkekeke, PS)",,9%,

Sequence,"target mRNA inhibition (SK-MEL-28, 4 µM)","target mRNA inhibition (MM.1R, 1 µM)",further results
"ACGTGTGCTTGCCAAG (sugars kdddddddddkekeke, PS)",,40% and 35%,
"TTGATGTGATAGCTGA (sugars kkdddddddddkdkdk, PS)",,36%,
"TGTGACATAAAGGACC (sugars k3 d10 k3, PS)",27%,,
"TGTCCAGCTGGCTCCG (sugars k3 d10 k3, PS)",39%,,
"ATACACACCCTCGGGC (sugars k3 d10 k3, PS)",,-10%,
"TTCAACACACTGTCTG (sugars k3 d10 k3, PS)",-31%,,
"CGCAAAACCCCTCAAG (sugars k3 d10 k3, PS)",19%,,
"CTCCCAGAGTTGTTCC (sugars k3 d10 k3, PS)",34%,,
"CCTGGTCCAGGTTGCT (sugars k4 d8 k4, PS)",34%,,
"GACCAACTGGAAAACC (sugars k3 d10 k3, PS)",56%,,
"GGTAATTTAGGCCAAT (sugars k3 d10 k3, PS)",35%,,
"AAAGTAACTGACACGC (sugars k3 d10 k3, PS)",67%,,
"TGGAAACGAGAACGCA (sugars k3 d10 k3, PS)",,-7%,
"AAACGGACTGGAACAT (sugars k3 d10 k3, PS)",7%,,
"GCATAGCATTATCTAC (sugars k3 d10 k3, PS)",51%,,
"ATATTAGAGACTGTAT (sugars k3 d10 k3, PS)",25%,,
"CACCAATGGCAGCACC (sugars k3 d10 k3, PS)",,16%,
"TTGTTCCACCCCTGGG (sugars k3 d10 k3, PS)",47%,,
"TCGAGATCATAGTGCA (sugars k3 d10 k3, PS)",,29%,
"ATTTACAGCATCTAAG (sugars k3 d10 k3, PS)",47%,,
"GCATTTTATCATCCGA (sugars k2 d9 e3 k2, PS)",,38%,
"GGCACGGCTTCAGTCA (sugars k3 d10 k3, PS)",75%,,
"CTGTTACCGATGCTTC (sugars kkdddddddddkdkdk, PS)",,58% and 52%,
"CAGCAAAACGCAGAGC (sugars k3 d10 k3, PS)",54%,,
"AAGCAGTGATGTCAGG (sugars kddddddddddkekek, PS)",,28% and 39%,

Sequence,"target mRNA inhibition (SK-MEL-28, 4 µM)","target mRNA inhibition (MM.1R, 1 µM)",further results
"TGTGTCAAAGAGCTTG (sugars k3 d10 k3, PS)",22%,,
"GGTGTAACTTTTACCT (sugars k3 d10 k3, PS)",11%,,
"AGTAACTGACACGCAC (sugars k3 d10 k3, PS)",51%,,
"TAGTAGGTAAGATCTC (sugars k3 d10 k3, PS)",23%,,
"AGTGACTTGCATCCAT (sugars kkddddddddddkeke, PS)",,50%,
"AGCATTTTATCATCCG (sugars kkddddddddddkeke, PS)",,33%,
"GTTTACTAACTGGCTT (sugars k3 d10 k3, PS)",27%,,
"AGCAGTGATGTCAGGT (sugars kkdddddddddkekek, PS)",,66% and 67% and 64%,"target mRNA inhibition (MM.1R, 0.0625 µM): 34%; target mRNA inhibition (MM.1R, 0.25 µM): 54%; target mRNA inhibition (MM.1R, 4 µM): 79%"
"AAAGAGCTGGTAGGTC (sugars k3 d10 k3, PS)",,-35%,
"TGGTGGGTCCTGGCAG (sugars k3 d10 k3, PS)",23%,,
"CGCCAGGCCGGCTAGG (sugars k3 d10 k3, PS)",10%,,
"GAATCTTGGCAGGGAG (sugars k3 d10 k3, PS)",,0%,
"GTTCCTGTCACCTGGC (sugars k4 d8 k4, PS)",12%,,
"ATCAGAATGTTTCGAC (sugars k3 d10 k3, PS)",46%,,
"GCTCATGGACATCTGC (sugars k3 d10 k3, PS)",39%,,
"CATCGAGATCAGTCTC (sugars k3 d10 k3, PS)",65%,,
"TCCAGAAAATTCAGCT (sugars k4 d8 k4, PS)",26%,,
"CTGCAACTGGCTCACT (sugars k3 d10 k3, PS)",10%,,
"GGGTTACGCTTATTTT (sugars k3 d10 k3, PS)",65%,,
"CCGATGCTTCAAGACA (sugars k3 d10 k3, PS)",,13%,
"GGCAAGTTTTCTCTGT (sugars k3 d10 k3, PS)",36%,,
"TAGCATGGATCCTGAG (sugars k3 d10 k3, PS)",0%,,
"AGGCACTTACTAGGTG (sugars k3 d10 k3, PS)",54%,,
"GGAACTCATAGGTGTA (sugars k3 d10 k3, PS)",,53% and 65%,"target mRNA inhibition (MM.1R, 0.0625 µM): 11% and 32%; target mRNA inhibition (MM.1R, 0.25 µM): 26% and 42%; target mRNA inhibition (MM.1R, 4 µM): 75% and 80%"
